Data on eight test systems can be found in the supplement of paper PMC6045584.

Compound in assay [1]: T1, O=C(O)C1(C(=O)O)CCC1.[NH2-].[NH2-].[Pt+2] [CARBOPLATIN]
The experiment in a line: surviving fraction relative to DMSO-only wells; higher = less growth inhibition. Conditions: exposure time: 5 days. In a few lines: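 In 384-well plates, 250–500 log-phase tumour cells per well were given 24 hours before five days of continuous exposure to inhibitors at 0.5, 1, 5, 10, 50, 100, 500 and 1000 nM. Surviving fraction is luminescence from CellTiter-Glo, normalised to the median of wells containing DMSO alone. Reading took place after 10 minutes at room temperature.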

Compound in assay [2]: T1, CARBOPLATIN
The experiment in a line: area under dose-response curve of surviving fraction (unscaled, Aref=0) (surviving fraction x log10(nM)); higher = more resistant. Conditions: exposure time: 5 days; dose range 0.5-1000 nM. Put shortly: (§1)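 Tumour cell lines in 384-well plates were exposed to eight inhibitor concentrations, from 0.5 to 1000 nM, for five days, and viability was read by CellTiter-Glo luminescence in three screens per line. Signals were normalised to DMSO-only wells, and 3-parameter logistic regression in the drc R package fitted dose-response survival curves to the surviving fractions. Area under the curve is given as the unscaled activity area. That area is taken over log10 dose with Aref = 0.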

Compound in another assay: Cc1ccc(-c2cc(C(F)(F)F)nn2-c2ccc(S(N)(=O)=O)cc2)cc1 [CELECOXIB]
Described as above. Conditions: exposure time: 5 days; dose range 0.5-1000 nM. In a few lines: as §1

Compound in another assay: C[C@]1(O)C[C@@H](c2nc(-c3ccc4ccc(-c5ccccc5)nc4c3)c3c(N)nccn32)C1 [OSI-906]
The assay is described as above. Conditions: exposure time: 5 days; dose range 0.5-1000 nM. Put shortly:
as §1

Compound in the next assay: CC[C@@]1(O)C(=O)OCc2c1cc1n(c2=O)Cc2cc3ccccc3nc2-1 [CAMPTOTHECIN]
The description is as above. Conditions: exposure time: 5 days; dose range 0.5-1000 nM. Put shortly:
as §1

Compound in another assay: COCC[n+]1c2c(n(Cc3cnccn3)c1C)C(=O)c1ccccc1C2=O [YM155]
The assay is described as above. Conditions: exposure time: 5 days; dose range 0.5-1000 nM. In a few lines: as §1

Compound in the next assay: CC(=O)O[C@H]1C(=O)[C@@]2(C)[C@H]([C@H](OC(=O)c3ccccc3)[C@]3(O)C[C@H](OC(=O)[C@H](O)[C@@H](NC(=O)c4ccccc4)c4ccccc4)C(C)=C1C3(C)C)[C@]1(OC(C)=O)CO[C@@H]1C[C@@H]2O [PACLITAXEL]
The assay is described as above. Conditions: exposure time: 5 days; dose range 0.5-1000 nM. In a few lines: as §1

Compound in assay [3]: CC(=O)c1c(C)c2cnc(Nc3ccc(N4CCNCC4)cn3)nc2n(C2CCCC2)c1=O
The description is as above. Conditions: exposure time: 5 days; dose range 0.5-1000 nM. Put shortly: as §1

Compound in the next assay: COc1cc2ncnc(Nc3ccc(F)c(Cl)c3)c2cc1OCCCN1CCOCC1 [GEFITINIB]
Described as above. Conditions: exposure time: 5 days; dose range 0.5-1000 nM. In a few lines: as §1

Compound in assay [4]: CC(=O)NCC(=O)N1[C@@H]2CC[C@H]1c1ccc(Nc3ncc(C(F)(F)F)c(NC4CCC4)n3)cc12
The assay is described as above. Conditions: exposure time: 5 days; dose range 0.5-1000 nM. In a few lines: as §1

± gives the standard deviation of the averaged measurements.

With SAOS2 BONE, the surviving fraction with CARBOPLATIN [1] (0.5 nM) worked out at 1.1 ± 0.048; with CARBOPLATIN [1] (1 nM) it was 1.18 ± 0.014; in the assay with CARBOPLATIN [1] (5 nM) it was 1.18 ± 0.059; with CARBOPLATIN [1] (10 nM) it was 1.16 ± 0.073; in the assay with CARBOPLATIN [1] (50 nM) it was 1.15 ± 0.051; with CARBOPLATIN [1] (100 nM), 1.06 ± 0.11. The results for the surviving fraction with CARBOPLATIN [1] (500 nM) and with CARBOPLATIN [1] (1000 nM) were 1.09 ± 0.097 and 0.943 ± 0.22, respectively. The “area under dose-response curve” value with CARBOPLATIN [2] came out at 3.68; in the assay with CELECOXIB it was 3.78; in the assay with OSI-906, 2.83; with CAMPTOTHECIN it was 1.2; with YM155 it was 1.05; with PACLITAXEL it was 1.1. The “area under dose-response curve” value in assay [3] came to 3.65; in the assay with GEFITINIB, 3.62; in [4], 2.47.
For the test system MDAMB231 BREAST, the surviving fraction in the assay with CARBOPLATIN [1] (0.5 nM) turned out to be 0.997 ± 0.048; with CARBOPLATIN [1] (1 nM) it was 0.988 ± 0.019; with CARBOPLATIN [1] (5 nM), 0.994 ± 0.036; in the assay with CARBOPLATIN [1] (10 nM), 1 ± 0.027; with CARBOPLATIN [1] (50 nM), 1.01 ± 0.019; with CARBOPLATIN [1] (100 nM), 1.02 ± 0.038. In addition, the figures for the surviving fraction with CARBOPLATIN [1] (500 nM) and with CARBOPLATIN [1] (1000 nM) were 1.03 ± 0.026 and 1.02 ± 0.041, respectively. Moreover, the “area under dose-response curve” value is 3.32 with CARBOPLATIN [2]; 3.3 with CELECOXIB; 3.07 in the assay with OSI-906; 1.62 with CAMPTOTHECIN; 0.671 in the assay with YM155; 0.557 in the assay with PACLITAXEL. Also, the entries for the “area under dose-response curve” value (in assay [3]; with GEFITINIB; in assay [4]) were 3.24, 3.4 and 2.51, respectively.
As to DU4475 BREAST, the surviving fraction with CARBOPLATIN [1] (0.5 nM) turned out to be 1.03 ± 0.064; with CARBOPLATIN [1] (1 nM), 0.931 ± 0.032; with CARBOPLATIN [1] (5 nM), 1.08 ± 0.23; with CARBOPLATIN [1] (10 nM), 1.04 ± 0.089; with CARBOPLATIN [1] (50 nM), 0.909 ± 0.029; in the assay with CARBOPLATIN [1] (100 nM), 0.975 ± 0.18. Further, the surviving fraction is 0.895 ± 0.06 with CARBOPLATIN [1] (500 nM) and 1.03 ± 0.035 with CARBOPLATIN [1] (1000 nM). The “area under dose-response curve” value with CARBOPLATIN [2] was determined as 3.22; with CELECOXIB it was 2.98; with OSI-906, 2.23; in the assay with CAMPTOTHECIN, 0.671; with YM155, 1.66; in the assay with PACLITAXEL, 0.884. The entries for the “area under dose-response curve” value (in assay [3]; in the assay with GEFITINIB; in assay [4]) were 3.51, 3.01 and 1.69, respectively.
Take HOS BONE: the surviving fraction came out at 1.06 ± 0.013 with CARBOPLATIN [1] (0.5 nM); 1.05 ± 0.02 in the assay with CARBOPLATIN [1] (1 nM); 1.04 ± 0.03 with CARBOPLATIN [1] (5 nM); 1.04 ± 0.02 with CARBOPLATIN [1] (10 nM); 1.15 ± 0.05 with CARBOPLATIN [1] (50 nM); 1.11 ± 0.033 with CARBOPLATIN [1] (100 nM). For the same test system, the figures for the surviving fraction with CARBOPLATIN [1] (500 nM) and with CARBOPLATIN [1] (1000 nM) were 1.07 ± 0.02 and 1.068 ± 0.0086, respectively. Besides, the “area under dose-response curve” value in the assay with CARBOPLATIN [2] was found to be 3.54; with CELECOXIB, 3.42; with OSI-906, 3.06; with CAMPTOTHECIN, 1.25; with YM155, 0.418; with PACLITAXEL it was 0.728. In addition, the “area under dose-response curve” value is 3.47 in [3], 3.42 with GEFITINIB and 2.69 in assay [4].
As for CASKI CERVIX, the surviving fraction in the assay with CARBOPLATIN [1] (0.5 nM) turned out to be 0.946 ± 0.064; with CARBOPLATIN [1] (1 nM), 0.877 ± 0.018; with CARBOPLATIN [1] (5 nM), 0.954 ± 0.043; in the assay with CARBOPLATIN [1] (10 nM), 0.93 ± 0.069; with CARBOPLATIN [1] (50 nM), 1.05 ± 0.025; with CARBOPLATIN [1] (100 nM), 1.04 ± 0.021. Besides, the results for the surviving fraction in the assay with CARBOPLATIN [1] (500 nM) and with CARBOPLATIN [1] (1000 nM) were 1.03 ± 0.077 and 1.03 ± 0.058, respectively. The “area under dose-response curve” value with CARBOPLATIN [2] turned out to be 3.19; with CELECOXIB, 3.15; in the assay with OSI-906 it was 2.98; in the assay with CAMPTOTHECIN it was 1.07; with YM155 it was 1.37; with PACLITAXEL, 0.492. The “area under dose-response curve” value in assay [3] worked out at 3.41; with GEFITINIB it was 2.15; in [4], 2.28.
LNCAP PROSTATE: the surviving fraction with CARBOPLATIN [1] (0.5 nM) was 1.02 ± 0.043; with CARBOPLATIN [1] (1 nM), 0.919 ± 0.079; with CARBOPLATIN [1] (5 nM) it was 0.981 ± 0.023; with CARBOPLATIN [1] (10 nM), 1.03 ± 0.086; with CARBOPLATIN [1] (50 nM), 1.09 ± 0.031; in the assay with CARBOPLATIN [1] (100 nM), 1.04 ± 0.046. For the same test system, the surviving fraction came out at 1 ± 0.18 with CARBOPLATIN [1] (500 nM) and 0.977 ± 0.077 with CARBOPLATIN [1] (1000 nM). Moreover, the “area under dose-response curve” value with CARBOPLATIN [2] worked out at 3.35; with CELECOXIB it was 3.19; in the assay with OSI-906 it was 3.5; with CAMPTOTHECIN, 0.813; with YM155 it was 1.82; with PACLITAXEL it was 0.354. The figures for the “area under dose-response curve” value (in assay [3]; with GEFITINIB; in assay [4]) were 3.12, 3.19 and 2.3, respectively.
For NCIH441 LUNG, the surviving fraction with CARBOPLATIN [1] (0.5 nM) stood at 1.08 ± 0.027; in the assay with CARBOPLATIN [1] (1 nM), 1.12 ± 0.063; with CARBOPLATIN [1] (5 nM), 1.08 ± 0.049; with CARBOPLATIN [1] (10 nM), 1.13 ± 0.093; with CARBOPLATIN [1] (50 nM), 1.07 ± 0.2; in the assay with CARBOPLATIN [1] (100 nM) it was 0.961 ± 0.091. The surviving fraction with CARBOPLATIN [1] (500 nM) was found to be 1.02 ± 0.16; with CARBOPLATIN [1] (1000 nM), 1.04 ± 0.21. Moreover, the “area under dose-response curve” value with CARBOPLATIN [2] is 3.51; in the assay with CELECOXIB it was 3.66; with OSI-906 it was 3.21; with CAMPTOTHECIN it was 1.41; in the assay with YM155 it was 1.12; in the assay with PACLITAXEL it was 1.56. For the same test system, the “area under dose-response curve” value was determined as 3.59 in assay [3], 3.59 in the assay with GEFITINIB and 2.94 in [4].
As for SYO1 SYNOVIAL, the surviving fraction amounted to 1.04 ± 0.028 with CARBOPLATIN [1] (0.5 nM); 0.986 ± 0.023 with CARBOPLATIN [1] (1 nM); 1.06 ± 0.027 in the assay with CARBOPLATIN [1] (5 nM); 0.9793 ± 0.0044 in the assay with CARBOPLATIN [1] (10 nM); 0.998 ± 0.019 with CARBOPLATIN [1] (50 nM); 1.01 ± 0.035 in the assay with CARBOPLATIN [1] (100 nM). The surviving fraction with CARBOPLATIN [1] (500 nM) is 0.99 ± 0.065; with CARBOPLATIN [1] (1000 nM), 0.972 ± 0.028. The “area under dose-response curve” value is 3.25 with CARBOPLATIN [2]; 3.18 with CELECOXIB; 2.64 with OSI-906; 0.528 in the assay with CAMPTOTHECIN; 1.25 in the assay with YM155; 0.539 in the assay with PACLITAXEL. Besides, the “area under dose-response curve” value in assay [3] was 3.14; in the assay with GEFITINIB it was 3.17; in [4], 1.98.
